Data: US20130317134A1, “TISSUE ADHESIVE BASED ON TRIFUNCTIONAL ASPARTATES” (Bayer Intellectual Property GmbH Creative Campus Monheim, priority 2011, published 2013)

Test system: L929 cells
Experiment: Cytotoxicity of the cured adhesive in accordance with ISO 10993-5:2009
Assay type: cell-based
Conditions: adhesive of Prepolymer C cured with equivalent amount of curing agent
Procedure: Prepolymer C was reacted with an equivalent amount of 3. The cytotoxicity was measured in accordance with ISO 10993-5:2009 using L929 cells.
4 g of prepolymer C were stirred thoroughly in a beaker with an equivalent amount of (5) and cured. The adhesive was measured in accordance with ISO 10993-5:2009 using L929 cells.

In the case of `CCOC(=O)CC(NCCCC(CCCNC(CC(=O)OCC)C(=O)OCC)CCCNC(CC(=O)OCC)C(=O)OCC)C(=O)OCC` (stereo not drawn) [Compound 3, Tetraethyl 2,2′-(4-(3-(1,4-diethoxy-1,4-dioxobutan-2-ylamino)propyl)heptane-1,7-diyl)bis-(azandiyl)disuccinate], the cell viability is reported as “no reduction in cell viability” and the cytotoxicity category is reported as “not to be categorised as cytotoxic”.
`CCOC(=O)CC(NCCCCC(CCCNC(CC(=O)OCC)C(=O)OCC)CNC(CC(=O)OCC)C(=O)OCC)C(=O)OCC` (stereo not drawn) [Compound 5, Diethyl 2-[(8-[(1,4-diethoxy-1,4-dioxobutan-2-yl)amino]-4-{[(1,4-diethoxy-1,4-dioxobutan-2-yl)-amino]methyl}octyl)amino]butanedioate, reference compound] was tested, and the cytotoxicity category was “high cyctotoxicity”.
